± gives the expanded uncertainty stated by the source.
Legend:
[1] = 101 kPa, Liquid, Vibrating tube method
[2] = mn = molality of the nth substance listed, in mol/kg; details: 101 kPa, Liquid, Vibrating tube method, m2 = 0

CC(=O)N(C)C [N,N-dimethylethanamide]
mass density ([1]; 283.15 K): 950.04 ± 0.3 kg/m3 | mass density ([1]; 293.15 K): 940.83 ± 0.3 kg/m3 | mass density ([1]; 298.15 K): 936.22 ± 0.3 kg/m3 | mass density ([1]; 303.15 K): 931.61 ± 0.3 kg/m3 | mass density ([1]; 313.15 K): 922.35 ± 0.3 kg/m3 | mass density ([1]; 323.15 K): 913.08 ± 0.3 kg/m3 | mass density ([1]; 333.15 K): 903.76 ± 0.3 kg/m3

CC(=O)N(C)C [N,N-dimethylethanamide] + O=S(=O)([O-])C(F)(F)F.[Na+]
mass density ([2]; 283.15 K): 950.04 ± 0.3 kg/m3 | mass density ([2]; 293.15 K): 940.83 ± 0.3 kg/m3 | mass density ([2]; 298.15 K): 936.22 ± 0.3 kg/m3 | mass density ([2]; 303.15 K): 931.61 ± 0.3 kg/m3 | mass density ([2]; 313.15 K): 922.35 ± 0.3 kg/m3 | mass density ([2]; 323.15 K): 913.08 ± 0.3 kg/m3 | mass density ([2]; 333.15 K): 903.76 ± 0.3 kg/m3

CN(C)C=O [dimethylformamide]
mass density ([1]; 283.15 K): 958.07 ± 0.3 kg/m3 | mass density ([1]; 293.15 K): 948.56 ± 0.3 kg/m3 | mass density ([1]; 298.15 K): 943.79 ± 0.31 kg/m3 | mass density ([1]; 303.15 K): 939.01 ± 0.31 kg/m3 | mass density ([1]; 313.15 K): 929.43 ± 0.31 kg/m3 | mass density ([1]; 323.15 K): 919.81 ± 0.31 kg/m3 | mass density ([1]; 333.15 K): 910.11 ± 0.31 kg/m3

CN(C)C=O [dimethylformamide] + O=S(=O)([O-])C(F)(F)F.[Na+]
mass density ([2]; 283.15 K): 958.07 ± 0.3 kg/m3 | mass density ([2]; 293.15 K): 948.56 ± 0.3 kg/m3 | mass density ([2]; 298.15 K): 943.79 ± 0.31 kg/m3 | mass density ([2]; 303.15 K): 939.01 ± 0.31 kg/m3 | mass density ([2]; 313.15 K): 929.43 ± 0.31 kg/m3 | mass density ([2]; 323.15 K): 919.81 ± 0.31 kg/m3 | mass density ([2]; 333.15 K): 910.11 ± 0.31 kg/m3

From the NIST ThermoML archive (doi:10.1016/j.jct.2012.11.004)
